The text below walks through data of PubChem BioAssay AID1996.

Values after ≈ are worked out from the molar mass of the structure shown.

For this data set the following is noted: buffer; pH 7.4; 200.0 µM.
Usually kinetic solubility stands for the concentration staying in solution when a stock, usually in DMSO, is diluted into the medium. `CC1=C(C)CC(C(=O)NCCc2ccc(F)cc2)C(C(=O)O)C1` (stereo not drawn) showed a kinetic solubility greater than 47.9 µg/mL.

`COc1ccc(CN2CCN(C3CCC3)CC2CCO)c(F)c1` (stereo not drawn) registered a kinetic solubility of 42.2 µg/mL (≈ 131 µM).

The compound `CCOCCCNC(=S)N1CCC(C(=O)c2ccc(C)cc2)CC1` displayed a solubility (kinetic) of 51.8 µg/mL (≈ 149 µM).

For `Cc1ccc(OC(F)F)c(N2C(=O)C3C4CCC(O4)C3C2=O)c1` (stereo not drawn), the kinetic solubility is greater than 48.5 µg/mL.

In turn, `O=C(O)c1ccc(S(=O)(=O)N2CCN(c3ccccn3)CC2)cc1` displayed a kinetic solubility greater than 52.1 µg/mL.

As to `COc1ccc([N+](=O)[O-])cc1NC(=O)c1csc(C)c1`, the kinetic solubility is less than 0.3 µg/mL.

`O=C(COc1ccc(C(=O)c2ccc(F)cc2)cc1)Nc1cccc(S(=O)(=O)N2CCOCC2)c1` yielded a kinetic solubility of 4.2 µg/mL (≈ 8.42 µM).

For the compound `COc1ccc(N(C)S(=O)(=O)c2c(C)noc2C)c(OC)c1`, the kinetic solubility is greater than 49 µg/mL.

In turn, `COc1ccccc1C(C)NC(=O)Cc1ccsc1` (stereo not drawn) yielded a kinetic solubility greater than 41.3 µg/mL.

Turning to `Oc1ccc(Br)cc1CNc1ccccn1`, the kinetic solubility was found to be 3.4 µg/mL (≈ 12.2 µM).

With `O=C(COC(=O)CCC1CCCC1)Nc1ccccc1OC(F)F`, the solubility (kinetic) is 9.7 µg/mL (≈ 28.4 µM).

Turning to `COc1ccc2[nH]c(C(=O)N3CCN(C)CC3)c(C)c2c1`, the kinetic solubility was greater than 43.1 µg/mL.

In the case of `Cc1ccc(C(C)NC(=O)c2ccncc2)cc1C` (stereo not drawn), the kinetic solubility was greater than 38.1 µg/mL.

Regarding `Cn1cnnc1SCC(=O)Nc1ccccc1Oc1ccccc1`, the solubility (kinetic) is greater than 51.1 µg/mL.

As to `Cc1ccc(Cl)c(NC(=O)CSc2cccc[n+]2[O-])c1Cl`, the kinetic solubility was greater than 51.5 µg/mL.

For `O=c1cc(-c2ccncc2)oc2c1ccc1ccccc12`, the solubility (kinetic) was found to be 0.7 µg/mL (≈ 2.56 µM).

In turn, `Cc1nnc(NC(=O)c2ccc(Br)o2)s1` returned a kinetic solubility greater than 43.2 µg/mL.

Take `Cc1cc(NC(=O)C2CC(=O)N(c3cccc(C)c3C)C2)no1` (stereo not drawn): the solubility (kinetic) was greater than 47 µg/mL.

With `COc1ccccc1CCn1cc(C#N)c(=O)[nH]c1=O`, the kinetic solubility was greater than 40.7 µg/mL.

As to `CCN(C(=O)COC(=O)c1ccc([N+](=O)[O-])o1)c1cccc2ccccc12`, the kinetic solubility is 33.7 µg/mL (≈ 91.5 µM).

`O=C(Nc1cccc([N+](=O)[O-])c1)Nc1ccc2c(c1)OCCO2` gave a solubility (kinetic) of 0.4 µg/mL (≈ 1.27 µM). Compared with the last compound, the solubility kinetic is about 84-fold lower.

As for `CN1CCCN(C(=O)c2ccccc2Cl)CC1`, the kinetic solubility is greater than 37.9 µg/mL.

For `Cc1cc(C=O)c(C)n1-c1ccc2c(c1)OCO2`, the kinetic solubility amounted to 24.6 µg/mL (≈ 101 µM).

The compound `S=C(Nc1cccc(Cl)c1)Nc1ccc2c(c1)OCCO2` gave a kinetic solubility of 40.4 µg/mL (≈ 126 µM).

As for `O=C(COC(=O)COc1ccc(Br)cc1)NC1CCCC1`, the solubility (kinetic) worked out at 13.3 µg/mL (≈ 37.3 µM).

In the case of `CN1C2CCC1CC(NC(=O)c1cc(Cl)cc3[nH]cnc13)C2` (stereo not drawn), the solubility (kinetic) was 40.7 µg/mL (≈ 128 µM).

Compound `CN(C)c1ccc(/C=N/O)cc1` yielded a solubility (kinetic) greater than 24.6 µg/mL.

Turning to `O=C(COC(=O)C12CC3CC(CC(C3)C1)C2)Nc1nccs1`, the solubility (kinetic) was less than 0.3 µg/mL.

On to `CN(C(=O)Nc1ccccc1)C1CCCc2ccccc21` (stereo not drawn), for which the kinetic solubility is greater than 42.1 µg/mL.

`Cc1ccc(C(=O)CCC(=O)N2CCC(C(N)=O)CC2)cc1` returned a solubility (kinetic) of 43.5 µg/mL (≈ 144 µM).

`COc1ccc(NC(=O)c2cc(C)no2)cc1OC` showed a kinetic solubility greater than 39.3 µg/mL.

Turning to `CC(=O)c1ccc(NC(=O)CN2CCCCCC2)cc1`, the kinetic solubility is greater than 41.2 µg/mL.

`Nc1ncnc(Oc2ccccc2F)c1[N+](=O)[O-]` yielded a solubility (kinetic) of 34.3 µg/mL (≈ 137 µM).

For the compound `COc1ccc(C(=O)N/N=C/c2cccnc2)cc1`, the solubility (kinetic) was greater than 38.3 µg/mL.

In turn, `COc1ccc2[nH]cc(CCNC(=O)CCC3CCCCC3)c2c1` gave a solubility (kinetic) of 29.9 µg/mL (≈ 91 µM).

Compound `C=CCNC(=O)COC(=O)c1cccnc1Nc1ccccc1F` registered a solubility (kinetic) of 17.9 µg/mL (≈ 54.4 µM).

`OCCN1CCN(Cc2ccc3ccccc3c2)CC1` gave a kinetic solubility of 26.9 µg/mL (≈ 99.5 µM).

As for `N#C/C(=C\c1ccccc1)C(=O)OCC(=O)N1CCCC1`, the kinetic solubility was greater than 42.6 µg/mL.

With `Cc1ccc2c(c1)N(CC(=O)N1CCCCC1)C(=O)C(C)O2` (stereo not drawn), the kinetic solubility was greater than 45.4 µg/mL.

Compound `CN(C)S(=O)(=O)c1cccc(NC(=O)COC(=O)c2ccc3ccccc3n2)c1` had a kinetic solubility of 40 µg/mL (≈ 96.7 µM).

The compound `O=C1C(C=Nc2ccc(F)cc2)=C(O)c2ccccc21` came in with a solubility (kinetic) of less than 0.6 µg/mL.

The compound `CCOC(=O)N1CCN(S(=O)(=O)c2ccc(C)cc2)CC1` yielded a kinetic solubility of 28.1 µg/mL (≈ 90 µM).

`Nc1ncccc1OCc1ccc(Cl)c(Cl)c1` returned a kinetic solubility of 29.7 µg/mL (≈ 110 µM). The solubility kinetic values of the last two compounds are within 1.5-fold of each other.

For the compound `COc1ccc(NC(=O)C2CC(c3ccc(Cl)cc3)=NO2)cc1` (stereo not drawn), the kinetic solubility was less than 0.4 µg/mL.

As for `Cc1ccc2c(c1)C1C3CCC(C3)C1S(=O)N2` (stereo not drawn), the solubility (kinetic) is greater than 37.1 µg/mL.

As for `CC(=O)N1CCN(c2ccc(S(=O)(=O)N3CCOCC3)cc2[N+](=O)[O-])CC1`, the kinetic solubility was greater than 59.8 µg/mL.

In the case of `Cl.OC1(CNCc2ccccc2)C2CC3CC(C2)CC1C3` (stereo not drawn), the kinetic solubility is greater than 46.2 µg/mL.

`O=[N+]([O-])c1ccc(C2=CSC3=NCCN23)cc1` returned a solubility (kinetic) of 31.2 µg/mL (≈ 126 µM).

Take `CC(C)CN1CCCC(N2CCN(c3cccc(Cl)c3)CC2)C1` (stereo not drawn): the kinetic solubility is 39.8 µg/mL (≈ 118 µM).

Turning to `CCCC(=O)Oc1ccc(C2NC(=O)c3ccccc3O2)cc1OC` (stereo not drawn), the solubility (kinetic) worked out at 3.9 µg/mL (≈ 11.4 µM).

Compound `CC(=O)OCC(=O)Nc1ccc(SC(F)F)cc1` displayed a kinetic solubility greater than 41.3 µg/mL.

In turn, `O=C(c1ccc(Cl)cc1Cl)N1CCc2ccccc21` yielded a kinetic solubility of 13.9 µg/mL (≈ 47.6 µM).

The compound `Cc1ccc(Nc2nc(NCCO)c3ccccc3n2)cc1C.Cl` showed a solubility (kinetic) of 30.9 µg/mL.
